# Assay results from patent publication US20040049799A1, “Method for screening agents capable of treating obesity” (priority 2000, published 2004).
# Test system: messenger for the SPARC protein in the adipose tissue
# Test: expression of the messenger for the SPARC protein in adipose tissue after insulin injection
# Format: in vivo
# Settings: injected into mice
substance,measurement,value
insulin,expression of the messenger for the SPARC protein in the adipose tissue,increases the expression of the messenger for the SPARC protein
